Measured values from patent US8778627B2, “Enzyme substrate comprising a functional dye and associated technology and methods” (Biotium, Inc., priority 2006, dated 2014).

Legend:
calf thymus dsDNA = experiment: DNA titration of nucleic acid dye-based substrates and controls; type: binding; details: 1 μM in pH 7.4 TE buffer, 30-minute incubation at room temperature, excitation 485 nm, emission 530 nm
Method: In this example, nucleic acid dye-based caspase-3 substrates, Substrate No. 19 and Substrate No. 20, and respective control compounds, Compound No. 7 and Compound No. 24, were titrated with varying amounts of calf thymus dsDNA and the fluorescence signals of the solutions were recorded. Briefly, the substrates and the respective controls were prepared as generally described above in relation to Example 51. Multiple wells of a 96-well plate were loaded with the substrate (100 μL, 1 μM) or the respective control (100 μL, 1 μM). Each well was then titrated with 5 μL of one of the seven DNA stock solutions of 2.1, 4.1, 8.2, 16.4, 32.8 65.6 and 127.5 μg/mL concentration, respectively, in pH 7.4 TE buffer. After a 30-minute incubation at room temperature, the fluorescence reading of each well was recorded with a SpectraMax Germini XS fluorescence microplate reader (Molecular Devices Corp., Sunnyvale, Calif.), with the excitation wavelength and the emission collection wavelength set at 485 nm and 530 nm, respectively.
DNA titrations of Compound No. 21, a nucleic acid dye-based HDAC substrate, and Compound No. 23, a control associated with Compound No. 21, were titrated with varying amounts of calf thymus dsDNA in the manner generally described above in relation to Example 52.

[1] = biological target: T1, caspase-3 activity in Jurkat cells (Homo sapiens, UniProt P42574); experiment: Detection of caspase-3 activity in live cells by flow cytometry; type: cell-based; details: for caspase-3-positive cell identification: Jurkat cells, substrate 10 μM for 15 minutes, FL1 channel
T1 construct: A flask of Jurkat cells were induced with staurosporine (1 μM) for apoptosis; endogenous in cells; host or cells: Jurkat cells induced with staurosporine
T1 sequence (P42574 29-175 limits assumed): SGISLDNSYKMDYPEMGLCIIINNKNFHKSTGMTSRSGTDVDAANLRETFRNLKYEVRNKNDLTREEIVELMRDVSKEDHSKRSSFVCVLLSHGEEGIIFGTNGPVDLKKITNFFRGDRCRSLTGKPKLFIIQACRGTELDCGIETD
T1 sequence (P42574 176-277 limits assumed): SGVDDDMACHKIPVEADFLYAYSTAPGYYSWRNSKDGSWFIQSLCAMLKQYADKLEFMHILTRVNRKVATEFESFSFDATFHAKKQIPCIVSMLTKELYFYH
Method: In this example, Jurkat cells were used to test whether Substrate No. 19 may be used to detect caspase-3 activity, or a lack thereof, within live cells by generating a nucleic acid dye that forms fluorescence upon binding to DNA. A flask of Jurkat cells were induced with staurosporine (1 μM) for apoptosis. Aliquots of the induced Jurkat cells were taken at 1 hour, 2.5 hours and 5 hours after induction, respectively, and aliquots of uninduced Jurkat cells, which served as negative controls, were taken at the same times. Substrate No. 19 was added to each Jurkat cell culture medium to give a final concentration of 10 μM and each resulting medium was allowed to incubate for 15 minutes before undergoing flow cytometry analysis using the FL1 channel for green fluorescence. […] For example, a stimulation time of 1 hour, 2.5 hours and 5 hours was associated with a 10%, 80% and 97% caspase-3-positive cell identification, respectively, as may be seen in the representations B, C and D of FIG. 4, respectively. One hour of staurosporine induction was required for Substrate No. 19 to reliably detect the presence of caspase-3-positive cells. Detection of intracellular caspase-3 activity via Substrate No. 19 is possible after only 15 minutes of incubation time, without necessitating cell destruction. Thus, it may be possible to continuously monitor enzymatic activity over more or less the entire course of cellular life via an enzyme substrate such as Substrate No. 19.

caspase-3 = biological target: T2, caspase-3 (Homo sapiens, UniProt P42574); experiment: In vitro enzymatic assay for nucleic acid dye-based substrates for caspase-3; type: biochemical; details: 10 μM, caspase-3 0.1 unit/mL, salmon sperm dsDNA 3.3 μg/mL, excitation 485 nm, emission 530 nm, FIG. 3
T2 construct: purchased Biovision Inc., Mountain View, Calif
T2 sequence (P42574 29-175 limits assumed): T1 sequence (P42574 29-175 limits assumed)
T2 sequence (P42574 176-277 limits assumed): T1 sequence (P42574 176-277 limits assumed)
Method: In this example, nucleic acid dye-based caspase-3 substrates were assayed in the presence of caspase-3 and dsDNA by monitoring the fluorescence increase. In one example, Substrate No. 19 (10 μM) was incubated with caspase-3 (0.1 unit/mL) (Biovision Inc., Mountain View, Calif.) and salmon sperm dsDNA (3.3 μg/mL) in a caspase assay buffer (100 μL; HEPES buffer (50 mM, pH 7.4), NaCl (100 mM), EDTA (1 mM), CHAPS (0.1%), DTT (10 mM), PMSF (1 mM) and glycerol (10%)) in a well of a black 96-well plate. The plate was then placed in a SpectraMax Germini XS fluorescence microplate reader (Molecular Devices Corp., Sunnyvale, Calif.), with the excitation wavelength set at 485 nm and emission collection wavelength set at 530 nm, to measure the fluorescence signal over time, as shown in FIG. 3.

[2] = biological target: T1, caspase-3 activity in Jurkat cells; experiment: Detection of caspase-3 activity in live cells by fluorescence microscopy; type: cell-based; details: Jurkat cells induced 4 hours with staurosporine (1 μM), substrate 10 μM for 15 minutes, confocal microscope, FIG. 5
Method: (§1) Substrate No. 19 (10 μM) was incubated for 15 minutes with Jurkat cells that had been induced for 4 hours with staurosporine (1 μM). Separately, Substrate No. 19 (10 μM) was incubated for 15 minutes with uninduced Jurkat cells, which served as a negative control. For each of the cell cultures, cells (1×10^5) were taken, pelleted and then resuspended in Annexin V binding buffer (100 μL; HEPES buffer (10 mM, pH 7.4), NaCl (140 mM) and CaCl2 (2.5 mM)) in a tube, whereupon Texas Red-conjugated Annexin V (5 μL, 50 μg/mL) (Biotium Inc., Hayward, Calif.) was added to each tube. After 15 minutes of incubation at room temperature, a cell culture (5 μL) of the induced cells or the uninduced cells was spotted onto a slide, which was then mounted with a coverslip and sealed with nail polish. The cells were examined with a 510 Meta UV/Vis confocal microscope. […] The green fluorescence is indicative of nuclear DNA staining by the nucleic acid dye that is formed from substrate cleavage via caspase-3. The red fluorescence is indicative of the staining of phosphatidylserine (PS) by the Texas Red-conjugated Annexin V, a fluorescent stain that is used to identify apoptotic cells.

calf thymus DNA = experiment: Measurement of fluorescence spectra in the presence of DNA; type: binding; details: 1 μM in pH 7.4 TE buffer, excess calf thymus DNA, excitation 600 nm, FIG. 1
Method: Stock solutions of nucleic acid dye-based substrates and respective control compounds were prepared by dissolving each compound in DMSO at 1 mg/mL concentration. The stock solutions were diluted into a pH 7.4 buffer (TE buffer) comprising Tris (10 mM), EDTA (1 mM) and NaCl (50 mM) to give a final concentration of 1 μM. Dye solutions containing an excess amount of DNA were prepared by adding a sufficient amount of calf thymus DNA calculated to yield a ratio of greater to or equal to 50 DNA base pairs per dye molecule. A fluorescence spectrum for each dye was recorded before and after the addition of DNA using a Jasco F-750 fluorescence spectrophotometer, with the fluorescence excitation wavelength set at λA-25 nm or 600 nm, where λA is the absorption maximum for each dye in the presence or the absence of DNA, and emission collection wavelength set at 660 nm.

phosphatidylserine (PS) = experiment: Texas Red-Annexin V staining of apoptotic Jurkat cells by confocal microscopy; type: cell-based; details: Jurkat cells induced 4 hours with staurosporine (1 μM), 15 minutes of incubation at room temperature, confocal microscope, FIG. 5
Method: as §1

Molecule: CC(=O)N[C@H](CC(=O)O)C(=O)N[C@H](CCC(=O)O)C(=O)N[C@@H](C(=O)N[C@H](CC(=O)O)C(=O)NCCNC(=O)CCCN1C=CC(=CC=Cc2sc3ccccc3[n+]2C)c2ccccc21)C(C)C [Substrate No. 20]
- fluorescence response to dsDNA concentration (DNA titration) (calf thymus dsDNA): relatively insensitive to the presence of DNA

Molecule: C[n+]1c(/C=C2\C=CN(CCCCCC(=O)NCCNC(=O)C(CCCCN)NC(=O)OC(C)(C)C)c3ccccc32)sc2ccccc21.[I-] (stereo not drawn) [Compound No. 23]
- fluorescence response to dsDNA concentration (DNA titration) (calf thymus dsDNA): fluorescently responsive to the amount of DNA present

Molecule: CC(=O)N[C@@H](CC(=O)O)C(=O)N[C@@H](CCC(=O)O)C(=O)N[C@H](C(=O)N[C@@H](CC(=O)O)C(=O)NCCNC(=O)CCCCCN1C=CC(=Cc2sc3ccccc3[n+]2C)c2ccccc21)C(C)C [Substrate No. 19]
- caspase-3-positive cell identification ([1]; staurosporine (1 μM) stimulation 1 hour): 10%
- caspase-3-positive cell identification ([1]; staurosporine (1 μM) stimulation 2.5 hours): 80%
- caspase-3-positive cell identification ([1]; staurosporine (1 μM) stimulation 5 hours): 97%
- staurosporine induction required to reliably detect caspase-3-positive cells ([1]; live Jurkat cells, staurosporine 1 μM, substrate 10 μM): One
- incubation time after which detection of intracellular caspase-3 activity is possible ([1]; live Jurkat cells, without cell destruction): 15 min
- fluorescence increase over time with caspase-3 and dsDNA (caspase-3): substrate for caspase-3 enzyme
- fluorescent staining pattern of cells [2]: green fluorescence in cellular nuclei
- fluorescence response to dsDNA concentration (DNA titration) (calf thymus dsDNA): relatively insensitive to the presence of DNA

Molecule: C[n+]1c(C=C2C=CN(CCCCCC(=O)NCCN)c3ccccc32)sc2ccccc21 [Compound No. 7]
- fluorescence response to dsDNA concentration (DNA titration) (calf thymus dsDNA): fluorescently responsive to the amount of DNA present

Molecule: CC(=O)NCCCCC(NC(=O)OC(C)(C)C)C(=O)NCCNC(=O)CCCCCN1C=C/C(=C\c2sc3ccccc3[n+]2C)c2ccccc21.[I-] (stereo not drawn) [Compound No. 21]
- fluorescence response to dsDNA concentration (DNA titration) (calf thymus dsDNA): relatively insensitive to the presence of DNA

Molecule: C[n+]1c(/C=C/C=C2\C=CN(CCCC(=O)NCCN)c3ccccc32)sc2ccccc21 [Compound No. 24]
- fluorescence emission in the presence of DNA, control versus substrate (calf thymus DNA): substantially more fluorescent than Substrate No. 20
- fluorescence response to dsDNA concentration (DNA titration) (calf thymus dsDNA): fluorescently responsive to the amount of DNA present

B1: Texas Red-conjugated Annexin V: fluorescent stain (Biotium Inc.) that is used to identify apoptotic cells by staining phosphatidylserine (conjugate, UniProt P08758 2-320, looked up)
Annexin A5: AQVLRGTVTDFPGFDERADAETLRKAMKGLGTDEESILTLLTSRSNAQRQEISAAFKTLFGRDLLDDLKSELTGKFEKLIVALMKPSRLYDAYELKHALKGAGTNEKVLTEIIASRTPEELRAIKQVYEEEYGSSLEDDVVGDTSGYYQRMLVVLLQANRDPDAGIDEAQVEQDAQALFQAGELKWGTDEEKFITIFGTRSVSHLRKVFDKYMTISGFQIEETIDRETSGNLEQLLLAVVKSIRSIPAYLAETLYYAMKGAGTDDHTLIRVMVSRSEIDLFNIRKEFRKNFATSLYSMIKGDTSGDYKKALLLLCGEDD
modifications: Texas Red dye
notes: fluorescent stain (Biotium Inc.) that is used to identify apoptotic cells by staining phosphatidylserine
- fluorescent staining pattern of cells (phosphatidylserine (PS)): red fluorescence on a cytoplasmic membrane
